How the values were obtained:
HIV-1 (IIIB) = experiment: Antiviral assay in MT-4 cells; format: cell-based; details: Human immunodeficiency virus 1, MT4, 120 h; HIV-1 IIIB in MT-4 cells, 5 days incubation, Cell Titer Glo; read-out: MT4 EC50
Summary of the method: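 Read-out: CellTiter-Glo luminescence after 5 days at 37 °C, reflecting survival of MT-4 cells infected with HIV-1 IIIB (1:250 fresh stock dilution) versus mock-infected. Compounds serially diluted into RPMI with 10% FBS; AZT at 5 μM served as positive control.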

[1] = Cytotoxicity assay in MT-4 cells; format: cell-based; details: human; uninfected MT-4 cells, 5 days incubation, Cell Titer Glo; read-out: MT4 CC50
Summary of the method: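 Viability read by Cell Titer Glo luminescence after 5 days at 37 °C. MT-4 cells, not infected, in complete RPMI (10% FBS), received compound dilution series. Base cytotoxicity set with […] puromycin.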

Row | Structure (SMILES) | EC50 (HIV-1 (IIIB)) [nM] | CC50 at 5 days [1] [nM]
1 | CCCCCOC(=O)Oc1c2n(cc(C(=O)NCc3ccc(F)cc3F)c1=O)[C@@H]1CN(C2=O)[C@@H](C)CC[C@]12CC(C)=NO2 [Example 129, (3′S,5S,7′R)-10′-((2,4-difluorobenzyl)carbamoyl)-3,3′-dimethyl-1′,11′-dioxo-1′,4′,5′,11′-tetrahydro-3′H,4H,7′H-spiro[isoxazole-5,6′-[2,7]methanopyrido[1,2-a][1,4]diazonin]-12′-yl pentyl carbonate] | 1.78 | 21700
2 | COC1=NO[C@@]2(CC[C@H](C)N3C[C@H]2n2cc(C(=O)NCc4ccc(F)cc4F)c(=O)c(OC(=O)OCCCCCC(C)C)c2C3=O)C1 [Example 157, (3′S,5S,7′R)-10′-((2,4-difluorobenzyl)carbamoyl)-3-methoxy-3′-methyl-1′,11′-dioxo-1′,4′,5′,11′-tetrahydro-3′H,4H,7′H-spiro[isoxazole-5,6′-[2,7]methanopyrido[1,2-a][1,4]diazonin]-12′-yl (6-methylheptyl) carbonate] | 2.33 | 15400
3 | COC1=NO[C@@]2(CC[C@H](C)N3C[C@H]2n2cc(C(=O)NCc4ccc(F)cc4F)c(=O)c(OCOC(=O)OC[C@@H](C)OC)c2C3=O)C1 [Example 218, (((3′S,5S,7′R)-10′-((2,4-difluorobenzyl)carbamoyl)-3-methoxy-3′-methyl-1′,11′-dioxo-1′,4′,5′,11′-tetrahydro-3′H,4H,7′H-spiro[isoxazole-5,6′-[2,7]methanopyrido[1,2-a][1,4]diazonin]-12′-yl)oxy)methyl ((R)-2-methoxypropyl) carbonate] | 3.09 | 32500
4 | CCCCCCCCCCCCCCCCCCOC(=O)OCOc1c2n(cc(C(=O)NCc3ccc(F)cc3F)c1=O)[C@@H]1CN(C2=O)[C@@H](C)CC[C@]12CC(OC)=NO2 [Example 197, (((3′S,5S,7′R)-10′-((2,4-difluorobenzyl)carbamoyl)-3-methoxy-3′-methyl-1′,11′-dioxo-1′,4′,5′,11′-tetrahydro-3′H,4H,7′H-spiro[isoxazole-5,6′-[2,7]methanopyrido[1,2-a][1,4]diazonin]-12′-yl)oxy)methyl octadecyl carbonate] | 41.2 | ≥ 50000
5 | CCCCCCCCCCOC(=O)OCOc1c2n(cc(C(=O)NCc3ccc(F)cc3F)c1=O)[C@@H]1CN(C2=O)[C@@H](C)CC[C@]12CC(OC)=NO2 [Example 189, decyl ((((3′S,5S,7′R)-10′-((2,4-difluorobenzyl)carbamoyl)-3-methoxy-3′-methyl-1′,11′-dioxo-1′,4′,5′,11′-tetrahydro-3′H,4H,7′H-spiro[isoxazole-5,6′-[2,7]methanopyrido[1,2-a][1,4]diazonin]-12′-yl)oxy)methyl) carbonate] | 3.54 | ≥ 50000
6 | CCCC(=O)Oc1c2n(cc(C(=O)NCc3ccc(F)cc3F)c1=O)[C@@H]1CN(C2=O)[C@@H](C)CC[C@]12CC(C)=NO2 [Example 35, (3′S,5S,7′R)-10′-((2,4-difluorobenzyl)carbamoyl)-3,3′-dimethyl-1′,11′-dioxo-1′,4′,5′,11′-tetrahydro-3′H,4H,7′H-spiro[isoxazole-5,6′-[2,7]methanopyrido[1,2-a][1,4]diazonin]-12′-yl butyrate] | 0.203 | 14100
7 | CC1=NO[C@@]2(CC[C@H](C)N3C[C@H]2n2cc(C(=O)NCc4ccc(F)cc4F)c(=O)c(OC(=O)CCCCCCCCCCCCCCCCC(=O)O)c2C3=O)C1 [Example 76, 18-(((3′S,5S,7′R)-10′-((2,4-difluorobenzyl)carbamoyl)-3,3′-dimethyl-1′,11′-dioxo-1′,4′,5′,11′-tetrahydro-3′H,4H,7′H-spiro[isoxazole-5,6′-[2,7]methanopyrido[1,2-a][1,4]diazonin]-12′-yl)oxy)-18-oxooctadecanoic acid] | 0.518 | 46000
8 | CCCCCCCCCCCCOC(=O)OCOc1c2n(cc(C(=O)NCc3ccc(F)cc3F)c1=O)[C@@H]1CN(C2=O)[C@@H](C)CC[C@]12CC(OC)=NO2 [Example 191, (((3′S,5S,7′R)-10′-((2,4-difluorobenzyl)carbamoyl)-3-methoxy-3′-methyl-1′,11′-dioxo-1′,4′,5′,11′-tetrahydro-3′H,4H,7′H-spiro[isoxazole-5,6′-[2,7]methanopyrido[1,2-a][1,4]diazonin]-12′-yl)oxy)methyl dodecyl carbonate] | 1.67 | ≥ 50000
9 | CCCCCCOC(=O)Oc1c2n(cc(C(=O)NCc3ccc(F)cc3F)c1=O)[C@@H]1CN(C2=O)[C@@H](C)CC[C@]12CC(C)=NO2 [Example 131, (3′S,5S,7′R)-10′-((2,4-difluorobenzyl)carbamoyl)-3,3′-dimethyl-1′,11′-dioxo-1′,4′,5′,11′-tetrahydro-3′H,4H,7′H-spiro[isoxazole-5,6′-[2,7]methanopyrido[1,2-a][1,4]diazonin]-12′-yl hexyl carbonate] | 0.136 | 19800
10 | COC1=NO[C@@]2(CC[C@H](C)N3C[C@H]2n2cc(C(=O)NCc4ccc(F)cc4F)c(=O)c(OC(=O)CCC(C)C)c2C3=O)C1 [Example 56, (3′S,5S,7′R)-10′-((2,4-difluorobenzyl)carbamoyl)-3-methoxy-3′-methyl-1′,11′-dioxo-1′,4′,5′,11′-tetrahydro-3′H,4H,7′H-spiro[isoxazole-5,6′-[2,7]methanopyrido[1,2-a][1,4]diazonin]-12′-yl 4-methylpentanoate] | 1.24 | 34700
11 | CCCC/C=C\CCCCCCCC(=O)Oc1c2n(cc(C(=O)NCc3ccc(F)cc3F)c1=O)[C@@H]1CN(C2=O)[C@@H](C)CC[C@]12CC(OC)=NO2 [Example 31, (3′S,5S,7′R)-10′-((2,4-difluorobenzyl)carbamoyl)-3-methoxy-3′-methyl-1′,11′-dioxo-1′,4′,5′,11′-tetrahydro-3′H,4H,7′H-spiro[isoxazole-5,6′-[2,7]methanopyrido[1,2-a][1,4]diazonin]-12′-yl (Z)-tetradec-9-enoate] | 2.39 | 15700

Continued by falling EC50 (HIV-1 (IIIB)), values first:

Row | EC50 (HIV-1 (IIIB)) [nM] | Structure (SMILES) | CC50 at 5 days [1] [nM]
12 | 2.76 | CC1=NO[C@@]2(CC[C@H](C)N3C[C@H]2n2cc(C(=O)NCc4ccc(F)cc4F)c(=O)c(OCOC(=O)C(C)(C)C)c2C3=O)C1 [Example 18, (((3′S,5S,7′R)-10′-((2,4-difluorobenzyl)carbamoyl)-3,3′-dimethyl-1′,11′-dioxo-1′,4′,5′,11′-tetrahydro-3′H,4H,7′H-spiro[isoxazole-5,6′-[2,7]methanopyrido[1,2-a][1,4]diazonin]-12′-yl)oxy)methyl pivalate] | 20100
13 | 2.64 | CCCCCCCCCCCCOC(=O)Oc1c2n(cc(C(=O)NCc3ccc(F)cc3F)c1=O)[C@@H]1CN(C2=O)[C@@H](C)CC[C@]12CC(C)=NO2 [Example 141, (3′S,5S,7′R)-10′-((2,4-difluorobenzyl)carbamoyl)-3,3′-dimethyl-1′,11′-dioxo-1′,4′,5′,11′-tetrahydro-3′H,4H,7′H-spiro[isoxazole-5,6′-[2,7]methanopyrido[1,2-a][1,4]diazonin]-12′-yl dodecyl carbonate] | 16500
14 | 0.998 | CCCCCCCC(=O)OCOc1c2n(cc(C(=O)NCc3ccc(F)cc3F)c1=O)[C@@H]1CN(C2=O)[C@@H](C)CC[C@]12CC(OC)=NO2 [Example 95, (((3′S,5S,7′R)-10′-((2,4-difluorobenzyl)carbamoyl)-3-methoxy-3′-methyl-1′,11′-dioxo-1′,4′,5′,11′-tetrahydro-3′H,4H,7′H-spiro[isoxazole-5,6′-[2,7]methanopyrido[1,2-a][1,4]diazonin]-12′-yl)oxy)methyl octanoate] | ≥ 50000
15 | 0.648 | COC1=NO[C@@]2(CC[C@H](C)N3C[C@H]2n2cc(C(=O)NCc4ccc(F)cc4F)c(=O)c(OC(=O)OCCCC(C)C)c2C3=O)C1 [Example 153, (3′S,5S,7′R)-10′-((2,4-difluorobenzyl)carbamoyl)-3-methoxy-3′-methyl-1′,11′-dioxo-1′,4′,5′,11′-tetrahydro-3′H,4H,7′H-spiro[isoxazole-5,6′-[2,7]methanopyrido[1,2-a][1,4]diazonin]-12′-yl (4-methylpentyl) carbonate] | 23600
16 | 0.562 | CCCCCCCC(=O)OCOc1c2n(cc(C(=O)NCc3ccc(F)cc3F)c1=O)[C@@H]1CN(C2=O)[C@@H](C)CC[C@]12CC(C)=NO2 [Example 96, (((3′S,5S,7′R)-10′-((2,4-difluorobenzyl)carbamoyl)-3,3′-dimethyl-1′,11′-dioxo-1′,4′,5′,11′-tetrahydro-3′H,4H,7′H-spiro[isoxazole-5,6′-[2,7]methanopyrido[1,2-a][1,4]diazonin]-12′-yl)oxy)methyl octanoate] | ≥ 50000
17 | 0.246 | CCCCCCCCCC(=O)OCOc1c2n(cc(C(=O)NCc3ccc(F)cc3F)c1=O)[C@@H]1CN(C2=O)[C@@H](C)CC[C@]12CC(C)=NO2 [Example 100, (((3′S,5S,7′R)-10′-((2,4-difluorobenzyl)carbamoyl)-3,3′-dimethyl-1′,11′-dioxo-1′,4′,5′,11′-tetrahydro-3′H,4H,7′H-spiro[isoxazole-5,6′-[2,7]methanopyrido[1,2-a][1,4]diazonin]-12′-yl)oxy)methyl decanoate] | ≥ 50000
18 | 0.201 | CCCCOC(=O)Oc1c2n(cc(C(=O)NCc3ccc(F)cc3F)c1=O)[C@@H]1CN(C2=O)[C@@H](C)CC[C@]12CC(C)=NO2 [Example 127, butyl butyl ((3′S,5S,7′R)-10′-((2,4-difluorobenzyl)carbamoyl)-3,3′-dimethyl-1′,11′-dioxo-1′,4′,5′,11′-tetrahydro-3′H,4H,7′H-spiro[isoxazole-5,6′-[2,7]methanopyrido[1,2-a][1,4]diazonin]-12′-yl) carbonate] | 13300
